Measured values from ChEMBL document CHEMBL5154693, “N-Methylpropargylamine-Conjugated Hydroxamic Acids as Dual Inhibitors of Monoamine Oxidase A and Histone Deacetylase for Glioma Treatment” (J Med Chem, 2022).
Activity calls are given as the source filed them. The calls are words filed in the database; no cut-off is given here.

What was measured:
[1] = Cytotoxicity against mouse GL26 cells assessed as inhibition of cell growth incubated for 48 hrs by MTT assay; type: functional, cell-based; settings: GL26, 48 h
U-251 [2] = assay: Cytotoxicity against human U251 cells assessed as inhibition of cell growth incubated for 48 hrs by MTT assay; type: functional, cell-based; settings: DDE = dose-dependent effect
[3] = biological target: T1, Amine oxidase [flavin-containing] A (Homo sapiens, UniProt P21397); assay: Inhibition of MAO-A (unknown origin) expressed in mouse GL26 cells using 14C 5-hydroxytryptamine as substrate pre-incubated for 20 mins followed by substrate addition measured after 20 mins by liquid scintillation spectroscopy; type: cell-based
T1 sequence (P21397 whole entry): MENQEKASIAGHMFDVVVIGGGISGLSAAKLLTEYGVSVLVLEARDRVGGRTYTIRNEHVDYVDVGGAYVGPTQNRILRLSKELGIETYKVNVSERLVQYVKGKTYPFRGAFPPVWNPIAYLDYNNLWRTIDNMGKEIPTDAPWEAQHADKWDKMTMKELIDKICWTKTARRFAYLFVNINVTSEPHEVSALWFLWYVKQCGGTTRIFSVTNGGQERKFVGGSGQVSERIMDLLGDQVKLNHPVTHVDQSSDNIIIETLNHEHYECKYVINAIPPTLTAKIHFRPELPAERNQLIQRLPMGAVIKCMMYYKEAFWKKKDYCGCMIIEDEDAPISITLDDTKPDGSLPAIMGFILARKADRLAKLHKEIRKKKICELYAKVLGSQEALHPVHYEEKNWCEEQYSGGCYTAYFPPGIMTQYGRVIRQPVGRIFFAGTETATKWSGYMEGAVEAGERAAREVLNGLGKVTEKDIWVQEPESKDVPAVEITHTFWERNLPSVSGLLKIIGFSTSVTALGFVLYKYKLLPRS

Histone deacetylase 1 = Histone deacetylase 1 (Homo sapiens, UniProt Q13547); assay: Inhibition of human HDAC1 (379 to 382 residues) using RHKKAc-AMC fluorogenic peptide as substrate by fluorescence assay
Histone deacetylase 2 = Histone deacetylase 2 (Homo sapiens, UniProt Q92769); assay: Inhibition of human HDAC2 (379 to 382 residues) using RHKKAc-AMC fluorogenic peptide as substrate by fluorescence assay
[4] = biological target: T2, Protein deacetylase HDAC6 (Homo sapiens, UniProt Q9UBN7); assay: Inhibition of human HDAC6 (379 to 382 residues) using RHKKAc fluorogenic peptide as substrate by fluorescence assay
T2 sequence (Q9UBN7 whole entry): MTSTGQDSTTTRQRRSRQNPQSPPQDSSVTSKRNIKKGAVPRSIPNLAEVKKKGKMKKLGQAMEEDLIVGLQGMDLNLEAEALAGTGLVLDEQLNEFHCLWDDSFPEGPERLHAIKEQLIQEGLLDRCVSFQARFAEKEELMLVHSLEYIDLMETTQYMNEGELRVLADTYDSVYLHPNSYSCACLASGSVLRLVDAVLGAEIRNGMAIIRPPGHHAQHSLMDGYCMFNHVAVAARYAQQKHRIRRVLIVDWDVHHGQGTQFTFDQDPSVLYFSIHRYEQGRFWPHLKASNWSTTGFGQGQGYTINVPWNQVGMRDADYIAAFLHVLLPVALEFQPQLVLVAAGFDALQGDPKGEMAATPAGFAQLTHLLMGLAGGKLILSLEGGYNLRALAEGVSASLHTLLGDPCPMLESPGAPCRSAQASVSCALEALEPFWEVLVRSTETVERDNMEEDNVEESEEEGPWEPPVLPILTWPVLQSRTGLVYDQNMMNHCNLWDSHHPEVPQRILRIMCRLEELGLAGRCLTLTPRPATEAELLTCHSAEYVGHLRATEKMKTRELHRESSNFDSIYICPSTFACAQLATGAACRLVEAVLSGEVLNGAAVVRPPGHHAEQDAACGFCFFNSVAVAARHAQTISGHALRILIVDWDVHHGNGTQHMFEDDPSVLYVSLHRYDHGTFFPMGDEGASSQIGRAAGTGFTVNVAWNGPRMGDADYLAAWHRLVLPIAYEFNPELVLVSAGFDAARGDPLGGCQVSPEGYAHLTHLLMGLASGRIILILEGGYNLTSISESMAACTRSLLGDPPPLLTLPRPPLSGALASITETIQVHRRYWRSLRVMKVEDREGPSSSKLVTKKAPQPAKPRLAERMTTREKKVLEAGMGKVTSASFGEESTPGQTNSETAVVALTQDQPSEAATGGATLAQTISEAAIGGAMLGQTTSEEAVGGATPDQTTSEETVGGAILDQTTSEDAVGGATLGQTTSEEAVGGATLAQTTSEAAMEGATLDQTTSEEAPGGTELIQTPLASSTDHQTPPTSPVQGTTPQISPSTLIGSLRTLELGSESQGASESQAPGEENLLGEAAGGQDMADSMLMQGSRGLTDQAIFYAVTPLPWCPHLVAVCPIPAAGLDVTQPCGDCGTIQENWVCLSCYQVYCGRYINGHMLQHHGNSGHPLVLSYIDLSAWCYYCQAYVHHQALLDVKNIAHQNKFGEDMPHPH

Histone deacetylase 8 = biological target: T3, Histone deacetylase 8 (Homo sapiens, UniProt Q9BY41); assay: Inhibition of human HDAC8 (379 to 382 residues) using RHKKAcKAc-AMC fluorogenic peptide as substrate by fluorescence assay
T3 sequence (Q9BY41 whole entry): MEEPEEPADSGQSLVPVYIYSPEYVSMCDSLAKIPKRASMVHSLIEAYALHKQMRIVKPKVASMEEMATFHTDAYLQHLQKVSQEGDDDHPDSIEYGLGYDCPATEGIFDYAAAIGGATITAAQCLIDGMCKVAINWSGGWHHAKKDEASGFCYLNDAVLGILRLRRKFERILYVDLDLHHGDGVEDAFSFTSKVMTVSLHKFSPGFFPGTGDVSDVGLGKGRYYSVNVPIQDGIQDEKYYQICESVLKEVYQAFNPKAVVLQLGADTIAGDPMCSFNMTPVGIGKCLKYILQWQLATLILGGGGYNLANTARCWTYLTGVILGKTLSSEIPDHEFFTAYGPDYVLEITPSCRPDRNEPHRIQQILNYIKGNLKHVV

[5] = biological target: Lysine-specific histone demethylase 1A (Homo sapiens, UniProt O60341); assay: Inhibition of human LSD1 assessed as demethylase activity of LSD1 using Histone H3(1-21)K4me2 peptide as substrate incubated for 30 mins followed by substrate addition by amplex red dye based HRP-coupled assay
U-251 [6] = assay: cells; type: functional, cell-based; settings: Homo sapiens, U-251, 48 h
Description: Cytotoxicity against human TMZ-sensitive U251 cells assessed as inhibition of cell growth incubated for 48 hrs by MTT assay

U-251 [7] = assay: cells; type: functional, cell-based; settings: Homo sapiens, U-251, 48 h; remark: listed apart in the source
Description: Cytotoxicity against human TMZ-resistant U251 cells assessed as inhibition of cell growth incubated for 48 hrs by MTT assay

Mus musculus [8] = assay: In vivo inhibition of MAO-A in C57BL6 mouse xenografted with mouse GL26 cells as decrease in MAO activity in brain at 50 mg/kg, ip by radiometric analysis; type: functional, organism-based
GL26 [9] = assay: Antitumor activity against mouse GL26 cells implanted in C57BL6 mouse assessed as reduction in tumor size at 50 mg/kg, ip daily measured for 10 days by bioluminescence assay; type: functional, organism-based; settings: time 10.0 day
[10] = Toxicity in C57BL6 mouse xenografted with mouse GL26 cells as assessed as last day of survival at 50 mg/kg, ip for 14 days treatment started at 5 days post-infection (Rvb=14 days); type: organism-based; settings: in vivo, 336 h, time 14 day
[11] = (§1) In vivo inhibition of MAO-A in mouse xenografted with mouse GL26 assessed as decrease in MAO activity in tumor at 50 mg/kg by radiometric analysis; type: functional; parameters: scale not given: the % may be the effect or the level left
Mus musculus [12] = assay: In vivo inhibition of MAO-A in mouse xenografted with mouse GL26 assessed as decrease in MAO activity in brain at 25 mg/kg, ip administered for 10 days by bioluminescence assay; type: functional, organism-based; settings: time 10.0 day
Mus musculus [13] = assay: In vivo inhibition of MAO-A in mouse xenografted with mouse GL26 assessed as decrease in MAO activity in tumor at 25 mg/kg, ip administered for 10 days by bioluminescence assay; type: functional, organism-based; settings: time 10.0 day
[14] = Toxicity in mouse bearing intracranial tumor assessed as median survival time at 50 mg/kg, ip for 10 days (Rvb= 13.8 days); type: organism-based; settings: in vivo, 240 h, time 10 day
[15] = Toxicity in mouse bearing intracranial tumor assessed as last day of survival at 50 mg/kg,ip for 10 days (Rvb=16 days); type: organism-based; settings: in vivo, 240 h, time 10 day
[16] = Toxicity in mouse bearing intracranial tumor assessed as assessed as median survival time at 50 mg/kg, ip for 14 days treatment started at 5 days post-infection (Rvb=12.8 days); type: organism-based; settings: in vivo, 336 h, time 14 day
[17] = Toxicity in mouse bearing intracranial tumor assessed as assessed as median survival time at 25 mg/kg, ip treatment started at 7 dpi (Rvb=18.25 days); type: organism-based; settings: in vivo, 438 h
[18] = Toxicity in mouse bearing intracranial tumor assessed as last day of survival at 25 mg/kg, ip treatment started at 7 dpi (Rvb=19 days); type: organism-based; settings: in vivo, 456 h
GL26 [19] = assay: Induction of apoptosis in mouse GL26 cells assessed as proteolytic cleavage of PARP1 incubated for 48 hrs by Western blot analysis; type: functional, cell-based; settings: dose 1.25-5 µM, DDE = dose-dependent effect
[20] = Toxicity in mouse bearing intracranial tumor assessed as last day of survival at 25 mg/kg, ip in presence of clorgyline for 10 days (Rvb=16 days); type: organism-based; settings: in vivo, 240 h, time 10 day
[21] = Toxicity in mouse bearing intracranial tumor assessed as last day of survival at 50 mg/kg, ip in presence of clorgyline for 10 days (Rvb=16 days); type: organism-based; settings: in vivo, 240 h, time 10 day
[22] = Toxicity in mouse bearing intracranial tumor assessed as median survival time at 25 mg/kg, ip in presence of clorgyline for 10 days (Rvb=13.8 days); type: organism-based; settings: in vivo, 240 h, time 10 day
[23] = Toxicity in mouse bearing intracranial tumor assessed as median survival time at 50 mg/kg, ip in presence of clorgyline for 10 days (Rvb=13.8 days); type: organism-based; settings: in vivo, 240 h, time 10 day
Mus musculus [24] = assay: as §1; type: functional

Sequence of Histone deacetylase 1 (Q13547 whole entry, the tested form may be a part): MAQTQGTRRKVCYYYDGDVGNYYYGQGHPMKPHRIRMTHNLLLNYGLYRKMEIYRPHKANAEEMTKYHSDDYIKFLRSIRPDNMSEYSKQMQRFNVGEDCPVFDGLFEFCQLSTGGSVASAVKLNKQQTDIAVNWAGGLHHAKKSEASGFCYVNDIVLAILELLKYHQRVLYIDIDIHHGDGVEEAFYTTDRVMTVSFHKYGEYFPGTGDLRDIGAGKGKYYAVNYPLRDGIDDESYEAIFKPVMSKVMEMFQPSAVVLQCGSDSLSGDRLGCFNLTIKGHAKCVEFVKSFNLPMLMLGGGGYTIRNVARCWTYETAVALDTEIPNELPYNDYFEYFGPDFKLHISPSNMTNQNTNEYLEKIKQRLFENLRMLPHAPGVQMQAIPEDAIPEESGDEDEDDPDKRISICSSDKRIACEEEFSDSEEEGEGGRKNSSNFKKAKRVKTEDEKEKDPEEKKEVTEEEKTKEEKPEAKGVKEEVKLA
Sequence of Histone deacetylase 2 (Q92769 whole entry, the tested form may be a part): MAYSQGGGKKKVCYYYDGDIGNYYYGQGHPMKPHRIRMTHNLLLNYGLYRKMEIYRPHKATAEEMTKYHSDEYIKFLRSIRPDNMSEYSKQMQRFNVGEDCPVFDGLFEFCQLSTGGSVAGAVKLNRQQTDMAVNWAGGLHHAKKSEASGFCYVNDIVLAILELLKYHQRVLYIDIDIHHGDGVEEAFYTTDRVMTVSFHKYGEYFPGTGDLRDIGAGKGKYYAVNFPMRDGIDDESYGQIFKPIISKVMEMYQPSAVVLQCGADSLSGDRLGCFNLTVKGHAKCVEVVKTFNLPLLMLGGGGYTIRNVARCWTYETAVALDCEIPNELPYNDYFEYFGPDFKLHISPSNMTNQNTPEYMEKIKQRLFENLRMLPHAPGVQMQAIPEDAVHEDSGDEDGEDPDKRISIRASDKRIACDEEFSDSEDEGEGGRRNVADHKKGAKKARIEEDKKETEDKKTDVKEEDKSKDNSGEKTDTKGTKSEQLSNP

Structure (SMILES)	IC50 [3] [nM]	IC50 (Histone deacetylase 1) [nM]	IC50 (Histone deacetylase 2) [µM]	IC50 [4] [nM]	IC50 (Histone deacetylase 8) [nM]	IC50 (U-251 [6]) [µM]	IC50 (U-251 [7]) [µM]	IC50 [1] [nM]	Survival [14] [days]	also measured
C#CCN(C)CCCOc1cc(NCc2ccc(C(=O)NO)cc2)ccc1Cl	0.4	2510	4.75	10	1170	10.1	7.12	2410	16.8	Activity (U-251 [2]): Dde; EC50 [5]: 6 µM; Activity (Mus musculus [8]): Active; Activity (GL26 [9]): Active; Survival [10]: 18 days; Activity [11]: 90%; Activity (Mus musculus [12]): Active; Activity (Mus musculus [13]): Active; Survival [15]: 20 days; MST [16]: 14.25 days; MST [17]: 19.75 days; Survival [18]: 23 days
O=C(CCCCCCC(=O)Nc1ccccc1)NO [VORINOSTAT]	–	–	–	–	–	–	–	2200	13.8	Activity (GL26 [19]): Dde; Survival [20]: 14 days; Survival [21]: 18 days; MST [22]: 13.8 days; MST [23]: 14.4 days
C#CCN(C)CCCOc1cc(NC(=O)CCCCCCCCC(=O)NO)ccc1Cl	< 0.1	1420	3.63	160	2480	33.2	16.2	1040	14.8	Activity (Mus musculus [8]): Active; Activity (GL26 [9]): Active; Survival [10]: 16 days; Activity (Mus musculus [24]): Active; Activity (Mus musculus [12]): Active; Activity (Mus musculus [13]): Active; MST [16]: 14.5 days; MST [17]: 18 days; Survival [18]: 21 days

More lines, main results first:

IC50 [3] [nM]	IC50 (Histone deacetylase 1) [nM]	IC50 (Histone deacetylase 2) [µM]	IC50 [4] [nM]	IC50 (Histone deacetylase 8) [nM]	IC50 (U-251 [6]) [µM]	IC50 (U-251 [7]) [µM]	Structure (SMILES)	IC50 [1] [nM]	Survival [14] [days]	also measured
3250	30	0.15	10	50	0.12	0.6	C#CCN(C)CCCOc1cc(NC(=O)CCCCCCC(=O)NO)ccc1Cl	1150	–	–
23300	890	3.21	90	1470	5.82	4.09	C#CCN(C)CCCOc1cccc(NC(=O)CCCCCCC(=O)NO)c1Cl	1740	–	–
430	3290	6.68	60	1780	50.6	8.67	C#CCN(C)CCCOc1cc(NC(=O)CCCCCCC(=O)NO)c(Cl)cc1Cl	74000	–	–
20	2310	4.18	80	1120	11.5	4.78	C#CCN(C)CCCOc1cc(NC(=O)CCCCCCCC(=O)NO)ccc1Cl	19300	–	–
